Data set [1] deals with Human immunodeficiency virus 1. Kind of data set: Concentration that inhibits Human Immunodeficiency Virus Type 1 (HIV-1)-induced death of MT-2 cells. It is filed as functional, MT2. Particulars: read-out: ED50 (the source's name).
For the next data set, the system named is MT2. Kind of data set: Lethal dose (LD5) concentration inhibiting growth of MT-2 cells by 5%. It is filed as toxicity, cell-based. Particulars: human.
For data set [2], the target named is Human immunodeficiency virus type 1 integrase (Human immunodeficiency virus 1, UniProt Q7ZJM1).
Description: Inhibitory activity against Human Immunodeficiency Virus Type 1 integrase (HIV-1 IN) in the disintegration assay.
Data set [3] concerns Human immunodeficiency virus 1. Kind of data set: microbe, parasite or virus in culture. Particulars: Human immunodeficiency virus 1, read-out: ED50.
Data set [4] relates to Human immunodeficiency virus 1. Particulars: read-out: ED50.
The subject of data set [5] is Human immunodeficiency virus 1. Particulars: read-out: ED50. The source holds these as a separate data set.
Where [6] appears, read: Human immunodeficiency virus 1, MT2.

Each structure is given as a SMILES string. Some results are limits rather than exact numbers.

For `O=C(OC(C(=O)O)C(OC(=O)c1cc(O)ccc1O)C(=O)O)c1cc(O)ccc1O` (stereo not drawn), the EC50 in data set [1] (setting [6]) is more than 238 µM. Besides, the LD5 with MT2 was more than 238 µM.
As to `O=C(/C=C/c1ccc(O)c(O)c1)O[C@@H]1CC(OC(=O)/C=C/c2ccc(O)c(O)c2)(C(=O)O)C[C@@H](O)C1O` (single isomer, unassigned) [CYNARIN], the IC50 (as a rule, the concentration that inhibits the measured activity by half) in data set [2] came out at 1600 nM. For the same compound, the EC50 in data set [1] (setting [6]) is 4 µM. Also, the LD5 in the data set on MT2 was 145 µM.
The matching figures for `O=C(/C=C\c1ccc(O)c(O)c1)OC1CCC(OC(=O)/C=C\c2ccc(O)c(O)c2)CC1` (stereo not drawn): 1010 nM, more than 45 µM and 20.5 µM.
Regarding `O=C(/C=C/c1ccccc1)OC(C(=O)O)C(OC(=O)/C=C/c1ccccc1)C(=O)O` (stereo not drawn), the LD5 in the data set with MT2 is more than 245 µM.
On to `O=C(/C=C/c1ccc(O)c(O)c1)OCCCOC(=O)/C=C/c1ccc(O)c(O)c1`, for which the IC50 in data set [2] was more than 10000 nM. In addition, the EC50 in data set [1] (setting [6]) was more than 350 µM. This compound also registered an LD5 with MT2 of 117.5 µM.
With `O=C(/C=C/c1ccc(O)c(O)c1)OC(C(=O)OC(c1ccccc1)c1ccccc1)C(OC(=O)/C=C/c1ccc(O)c(O)c1)C(=O)OC(c1ccccc1)c1ccccc1` (stereo not drawn), the EC50 in data set [1] (setting [6]) is more than 37.2 µM. Also, the LD5 with MT2 turned out to be 16.1 µM.
For `O=C(Cc1ccc(O)c(O)c1)OC(C(=O)O)C(OC(=O)Cc1ccc(O)c(O)c1)C(=O)O` (stereo not drawn), the EC50 is more than 62.5 µM in data set [3], 15.6 µM in data set [4] and 35 µM in data set [1]. This compound also yielded an IC50 in data set [2] of 880 nM. In addition, the LD5 with MT2 worked out at 70 µM.
`O=C(/C=C/c1ccc(O)c(O)c1)OC(C(=O)O)C(OC(=O)/C=C/c1ccc(O)c(O)c1)C(=O)O` (stereo in doubt; 1 (L)) registered an LD5 in the data set with MT2 of 264 µM.
The compound `O=C(/C=C/c1ccc(O)c(O)c1)OCCOC(=O)/C=C/c1ccc(O)c(O)c1` gave an IC50 in data set [2] of more than 10000 nM. For the same compound, the EC50 in data set [1] (setting [6]) was more than 388 µM. In the data set on MT2, this compound gave an LD5 of 194 µM.
`O=C(/C=C/c1ccc(O)c(O)c1)OC1CCC(OC(=O)/C=C/c2ccc(O)c(O)c2)CC1` (stereo not drawn): the midpoint of inhibition in data set [2], the IC50, lay at 1030 nM. The EC50 in data set [1] (setting [6]) was more than 341 µM. The compound also showed an LD5 with MT2 of 170 µM.
Regarding `O=C(/C=C/c1ccc(O)c(O)c1)O[C@@H]1C[C@@](O)(C(=O)O)CC(O)[C@@H]1OC(=O)/C=C/c1ccc(O)c(O)c1` (stereo partly drawn), in data set [2], the IC50 was 1400 nM. Further, the EC50 in data set [1] (setting [6]) is 12 µM. The LD5 in the data set on MT2 was 116 µM.
For `O=C(O)/C=C/c1ccc(O)c(O)c1` [CAFFEIC ACID], in data set [1] (setting [6]), the EC50 is more than 1390 µM. Also, the LD5 in the data set with MT2 was determined as 1389 µM.
Consider `O=C(OC(C(=O)O)C(OC(=O)c1ccc(F)c(F)c1)C(=O)O)c1ccc(F)c(F)c1` (stereo not drawn), for which the EC50 in data set [1] (setting [6]) is more than 59.2 µM. This compound returned an LD5 in the data set on MT2 of 28.9 µM.
The matching figures for `O=C(/C=C/c1ccc(O)c(O)c1)O[C@@H]1C[C@](O)(C(=O)O)C[C@@H](O)[C@H]1O` [CHLOROGENIC ACID]: more than 497 µM and 249 µM.
As for `O=C(/C=C/c1ccc(O)c(O)c1)OC1CCCC(OC(=O)/C=C/c2ccc(O)c(O)c2)C1` (stereo not drawn), the IC50 in data set [2] is 1800 nM. Also, the EC50 in data set [1] (setting [6]) was more than 34.1 µM. This compound gave an LD5 in the data set on MT2 of 9.1 µM.
Take `COc1ccc(/C=C/C(=O)OC(C(=O)O)C(OC(=O)/C=C/c2ccc(OC)c(OC)c2)C(=O)O)cc1OC` (stereo not drawn): in data set [1] (setting [6]), the EC50 is more than 178 µM. Moreover, in the data set on MT2, the LD5 came out at 89 µM.
On to `O=C(OC(C(=O)O)C(OC(=O)c1cc(O)c(O)c(O)c1)C(=O)O)c1cc(O)c(O)c(O)c1` (stereo not drawn), for which the EC50 in data set [4] came out at 0.29 µM; in data set [1], 0.66 µM; in data set [5], 31.2 µM. The compound also showed an IC50 in data set [2] of 970 nM. This compound also gave an LD5 in the data set on MT2 of 2.7 µM.
Take `O=C(O)C(O)C(O)C(=O)O` (stereo not drawn): the EC50 in data set [1] (setting [6]) is more than 1000 µM. Besides, the LD5 in the data set on MT2 is more than 1000 µM.
As for `O=C(/C=C/c1ccc(O)cc1)OC(C(=O)O)C(OC(=O)/C=C/c1ccc(O)cc1)C(=O)O` (stereo not drawn), the EC50 in data set [1] (setting [6]) is more than 227 µM. In the data set on MT2, this compound yielded an LD5 of 114 µM.
Take `O=C(/C=C/c1ccc(O)c(O)c1)OC1CCCCC1OC(=O)/C=C/c1ccc(O)c(O)c1` (stereo not drawn): the IC50 in data set [2] is more than 10000 nM. The EC50 in data set [1] (setting [6]) was more than 136 µM. In the data set with MT2, this compound registered an LD5 of 63.6 µM.
In the case of `O=C(/C=C/c1cccc(O)c1)OC(C(=O)O)C(OC(=O)/C=C/c1cccc(O)c1)C(=O)O` (stereo not drawn), the EC50 in data set [1] (setting [6]) is more than 283 µM. The LD5 in the data set on MT2 turned out to be 566 µM.
For the compound `O=C(CCc1ccc(O)c(O)c1)OC(C(=O)O)C(OC(=O)CCc1ccc(O)c(O)c1)C(=O)O` (stereo not drawn), the EC50 in data set [4] was found to be 7.8 µM; in data set [1], 8.4 µM; in data set [5], 31.2 µM. In data set [2], the IC50 is 2380 nM. For the same compound, in the data set with MT2, the LD5 is more than 263 µM.
`O=C(/C=C\c1ccc(O)c(O)c1)OC1CCCC(OC(=O)/C=C\c2ccc(O)c(O)c2)C1` (stereo not drawn) had an IC50 in data set [2] of 1630 nM. For the same compound, the EC50 in data set [1] (setting [6]) is more than 68.2 µM. In the data set with MT2, the LD5 worked out at 36.4 µM.
Taken in the same sequence, the figures for `O=C(/C=C/c1ccc(O)c(O)c1)OCC(OC(=O)/C=C/c1ccc(O)c(O)c1)C(=O)O` (stereo not drawn) were 520 nM, 2.3 µM and 145 µM.
`O=C(/C=C\c1ccc(O)c(O)c1)OC1CCCCC1OC(=O)/C=C\c1ccc(O)c(O)c1` (stereo not drawn): the IC50 in data set [2] is 8360 nM. Moreover, in data set [1] (setting [6]), the EC50 was more than 90.9 µM. The compound also gave an LD5 with MT2 of 22.7 µM.
`O=C(/C=C/c1ccc(O)c(O)c1)Oc1cc(OC(=O)/C=C/c2ccc(O)c(O)c2)cc(C(=O)O)c1` displayed an IC50 in data set [2] of 6900 nM. Also, the EC50 in data set [1] (setting [6]) is more than 75 µM. In the data set on MT2, this compound had an LD5 of 100 µM.
As for `O=C(/C=C/c1ccc(O)c(O)c1)OCCCCOC(=O)/C=C/c1ccc(O)c(O)c1`, in data set [2], the IC50 is more than 10000 nM. Further, in data set [1] (setting [6]), the EC50 was more than 242 µM. Besides, in the data set on MT2, the LD5 came out at 121 µM.
Consider `O=C(O)[C@]1(O)C[C@@H](O)[C@@H](O)[C@H](O)C1` [QUINIC ACID], for which, in data set [1] (setting [6]), the EC50 was more than 1820 µM. Further, the LD5 in the data set on MT2 was determined as 907 µM.
Consider `O=C(/C=C/c1ccc(O)c(O)c1)OC1C[C@](O)(C(=O)O)C[C@@H](O)[C@H]1OC(=O)/C=C/c1ccc(O)c(O)c1` (stereo partly drawn), for which the IC50 in data set [2] was found to be 600 nM. In addition, in data set [1] (setting [6]), the EC50 is 4 µM. Besides, the LD5 in the data set with MT2 is 145 µM.
`O=C(/C=C/c1ccc(O)c(O)c1)O[C@@H]1C[C@](O)(C(=O)O)C[C@@H](OC(=O)/C=C/c2ccc(O)c(O)c2)[C@H]1O`: the midpoint of inhibition in data set [2], the IC50, lay at 1300 nM. The EC50 in data set [1] (setting [6]) worked out at 2 µM. In the data set with MT2, this compound yielded an LD5 of 290 µM.
On to `O=C(OC(C(=O)O)C(OC(=O)c1cc(O)cc(O)c1)C(=O)O)c1cc(O)cc(O)c1` (stereo not drawn), for which the EC50 in data set [1] (setting [6]) is more than 119 µM. For the same compound, the LD5 with MT2 was more than 119 µM.
As to `O=C(OC(C(=O)O)C(OC(=O)c1ccc(O)c(O)c1)C(=O)O)c1ccc(O)c(O)c1` (stereo not drawn), the results for the EC50 in data set [3], in data set [4] and in data set [1] were more than 52.5 µM, 0.82 µM and 0.95 µM, respectively. Further, the IC50 in data set [2] came out at 430 nM. Also, the LD5 in the data set with MT2 stood at 90 µM.
As for `O=C(/C=C/c1ccc(O)c(O)c1)O[C@H](C(=O)O)[C@H](OC(=O)/C=C/c1ccc(O)c(O)c1)C(=O)O` [CHICORIC ACID], the LD5 in the data set with MT2 turned out to be 115 µM.
In data set [2], `O=C(OC(C(=O)O)C(OC(=O)c1cccc(O)c1O)C(=O)O)c1cccc(O)c1O` (stereo not drawn) returned an IC50 of 1070 nM. In addition, the EC50 in data set [1] (setting [6]) is more than 38 µM. This compound also returned an LD5 with MT2 of 19 µM.

The record behind these values is ChEMBL document CHEMBL1132572 (J Med Chem, 1999).
